Test results: patent US20030234356A1, “Method and apparatus for the detection of noncovalent interactions by mass spectrometry-based diffusion measurements” (priority 2002, published 2003)
Entries after “also recorded” stand apart in the source; their conditions may differ.

What was measured:
[1] = molecular target: T1, lysozyme (Gallus gallus, UniProt P00698); assay: ESI-MS Taylor dispersion screen of a mixture of six sugars for noncovalent binding to lysozyme; details: six sugars monitored simultaneously
T1 construct: purchased Sigma (St. Louis, Mo.)
Description: (§1) Based on the theoretical considerations described above, we will now describe details of an apparatus that allows the measurement of dispersion profiles by ESI-MS or APCI-MS. A schematic diagram of the apparatus is shown generally at 10 in FIG. 2. The measurements described below were carried out by using a 3.013 m long Teflon laminar flow tube (Upchurch, Oak Harbor, Wash.) shown as LFT or 12 in FIG. 2. The inner diameter (i.d.) of this LFT was determined gravimetrically to be 258.2 μm. In order to measure a diffusion coefficient, a sharp initial boundary must be created between the carrier solution and the following analyte solution at the entrance of the flow tube (Equation 3). This was accomplished by using a valve mechanism shown in FIG. 2 as a “sliding block mechanism (SBM)” 14 developed by the inventors. The laminar flow tube (LFT) 12 is inserted into a Teflon block machined to accommodate a PEEK connector and ferrule (Upchurch, Oak Harbor, Wash.) so that the flow tube 12 extends through to the end of the block. Initially, the entrance to the flow tube 12 is aligned with an opening in a steel block into which a piece of PEEK tubing 16 (508 μm ID, length ≈0.5 m) is fitted, using another PEEK connector and ferrule. This second piece of tubing 16 is used as the inlet tube, forming a leak-proof connection between the inlet tube and the flow tube at the boundary between the steel and Teflon blocks.
An analyte reservoir 18 (shown as a syringe in FIG. 2 which also acts as a pump) connected to the inlet tube 16 can be used to fill the inlet tube 16 with analyte solution, and to pump this analyte solution through the LFT 12. Initially, however, a carrier solution reservoir (not shown) is connected to tube 16 for filling the laminar flow tube 12 with carrier solution. The analyte solution and carrier solution reservoirs are never connected to the laminar flow tube 16 at the same time. Subsequently, the Teflon block containing the flow tube is moved sideways, such that the two tubes 12 and 16 are no longer aligned and the entrance to the flow tube 12 is closed off by the steel block. The inlet tube 16 can now be filled with analyte solution from pump 18 (syringe S1) without disturbing the carrier solution in the flow tube 12. Then the Teflon block is returned to its original position, aligning the two tubes (12 and 16) and creating a sharp boundary between the analyte solution in the inlet tube and the carrier solution in the LFT 12. The i.d. of the inlet tube 16 was chosen to be larger than that of the flow tube 12 to ensure that the boundary between the two solutions would cover the entire cross-sectional area of the flow tube 12, even if the sliding block were slightly misaligned. […]

[2] = molecular target: T2, apo-myoglobin (Equus caballus, UniProt P68082); assay: ESI-MS Taylor dispersion (diffusion) measurement of noncovalent heme-protein binding in myoglobin; details: for noncovalent binding of heme to the protein: 24±1° C
T2 construct: purchased Sigma (St. Louis, Mo.)
Description: as §1
An analyte reservoir 18 (shown as a syringe in FIG. 2 which also acts as a pump) connected to the inlet tube 16 can be used to fill the inlet tube 16 with analyte solution, and to pump this analyte solution through the LFT 12. Initially, however, a carrier solution reservoir (not shown) is connected to tube 16 for filling the laminar flow tube 12 with carrier solution. The analyte solution and carrier solution reservoirs are never connected to the laminar flow tube 16 at the same time. Subsequently, the Teflon block containing the flow tube is moved sideways, such that the two tubes 12 and 16 are no longer aligned and the entrance to the flow tube 12 is closed off by the steel block. The inlet tube 16 can now be filled with analyte solution from pump 18 (syringe S1) without disturbing the carrier solution in the flow tube 12. Then the Teflon block is returned to its original position, aligning the two tubes (12 and 16) and creating a sharp boundary between the analyte solution in the inlet tube and the carrier solution in the LFT 12. The i.d. of the inlet tube 16 was chosen to be larger than that of the flow tube 12 to ensure that the boundary between the two solutions would cover the entire cross-sectional area of the flow tube 12, even if the sliding block were slightly misaligned. The use of a commercially available HPLC injection valve with a sample loop of suitable size may serve the same purpose as the described sliding block mechanism.
For the four examples given below, the analyte solution from syringe S1 is pumped through the laminar flow tube by using a Harvard syringe pump (South Nattick, Mass.). The outlet of the flow tube 12 is connected to two fused silica capillaries 26 and 28 (i.d. 100 μm, o.d. 165 μm, Polymicro Technologies, Phoenix, Ariz.) at a mixer 30 located at the end of tube 12. The first of these capillaries 26 has a length of 5 cm and is connected to the ESI source of the mass spectrometer 22. For studies on myoglobin, the second capillary 28 was used to supplement the analyte near the end of the laminar flow tube 12 with a methanol/acetic acid (90:10 v/v) mixture from syringe S2 just before it reached the ESI ion source. This “make-up” solvent was delivered at a flow rate of 5 μL/min, for a total flow rate of 10 μL/min at the ion source. The residence time of the analyte solution in the final 5 cm capillary was only about 2 s and can therefore be neglected for the analysis (the value of l/{overscore (v)} is 1929 s). […]

[3] = absence vs presence of lysozyme
[4] = denaturing conditions (50% acetonitrile, pH 10)
[5] = native-like solvent conditions (no organic cosolvents, pH 10)
[6] = semi-denaturing conditions (30% acetonitrile, pH 10)

T1 sequence (P00698 19-147): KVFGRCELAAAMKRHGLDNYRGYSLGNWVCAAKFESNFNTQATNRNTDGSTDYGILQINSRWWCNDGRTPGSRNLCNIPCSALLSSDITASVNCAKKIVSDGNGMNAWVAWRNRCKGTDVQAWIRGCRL
T2 sequence (P68082 2-154 limits assumed): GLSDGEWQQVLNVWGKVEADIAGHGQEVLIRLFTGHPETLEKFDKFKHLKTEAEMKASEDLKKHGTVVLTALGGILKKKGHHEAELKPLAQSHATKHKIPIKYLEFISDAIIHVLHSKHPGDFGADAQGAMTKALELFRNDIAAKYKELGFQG

Row | Compound | change in dispersion profile when the protein was added [1, 3] | change of apparent diffusion coefficient upon addition of the protein ([1]; absence vs presence of lysozyme, average of about ten measurements) | noncovalent binding to lysozyme ([1]; without and with lysozyme) | fitted diffusion coefficient of heme compared with that of the protein in myoglobin solution [2, 4] | noncovalent binding of heme to the protein [2, 4] | fitted diffusion coefficient of heme compared with that of the protein in myoglobin solution [2, 5] | noncovalent binding of heme to the protein [2, 5] | fitted diffusion coefficient of heme compared with that of the protein in myoglobin solution [2, 6] | noncovalent binding of heme to the protein [2, 6]
1 | CC(=O)N[C@H]1[C@H](O[C@H]2[C@H](O)[C@@H](NC(C)=O)C(O)O[C@@H]2CO)O[C@H](CO)[C@@H](O[C@@H]2O[C@H](CO)[C@@H](O)[C@H](O)[C@H]2NC(C)=O)[C@@H]1O (stereo partly shown) [chitotriose] | distinct change | dramatic reduction; also recorded: significant change | binds noncovalently to lysozyme |  |  |  |  |  | 
2 | C=CC1=C(C)c2cc3[n-]c(cc4[n-]c(cc5nc(cc1n2)C(C)=C5C=C)c(C)c4CCC(=O)O)c(CCC(=O)O)c3C.[Fe+2] [heme] |  |  |  | much larger diffusion coefficient | absent or extremely weak | agree closely with each other | noncovalently bound to the protein | almost identical | still bound to each other
3 | C[C@H](O)[C@H](O)[C@@H](O)[C@@H](O)C=O [rhamnose] | virtually no change |  |  |  |  |  |  |  | 
